Data as given in US10328080B2, “Therapeutic combination of PI3K inhibitor and a BTK inhibitor” (Acerta Pharma B.V., priority 2013, dated 2019).

Legend:
human platelets, GPVI = experiment: GPVI platelet aggregation (Convulxin-induced); format: cell-based; conditions: CVX-induced, FIG. 56 and FIG. 57
Description: GPVI platelet aggregation was measured for Formula (XVIII) and Formula XX-A (ibrutinib). Blood was obtained from untreated humans, and platelets were purified from […] by centrifugation. Cells were resuspended to a final concentration of […] in buffer containing 145 mmol/L NaCl, 10 mmol/L HEPES, 0.5 mmol/L Na2HPO4, 5 mmol/L KCl, 2 mmol/L MgCl2, 1 mmol/L CaCl2, and 0.1% glucose, at pH 7.4. Stock solutions of […] were prepared on the day of experimentation and added to platelet suspensions 5 minutes (37° C., 1200 rpm) before the induction of aggregation. Aggregation was assessed with a Chronolog Lumi-Aggregometer (model 540 VS; Chronolog, Havertown, Pa.) and permitted to proceed for 6 minutes after the addition of agonist. The results are reported as maximum percent change in light transmittance from baseline with platelet buffer used as a reference.
In FIG. 57, the results of CVX-induced (250 ng/mL) human platelet aggregation results before and 15 min after administration of the BTK inhibitors to 6 healthy individuals are shown.

canine B cell lymphoma = experiment: Veterinary clinical trial in companion dogs with lymphoma; format: in vivo; conditions: Arm 1 monotherapy, Arm 2 combination
Description: Enrollment has completed for Arm 1 and is ongoing for Arm 2.
Intra-subject dose escalation was allowed. Six of the 11 dogs that initiated at 2.5 or 5 mg/kg once daily were escalated and completed the study with dosages of 10 mg/kg twice daily. Among all the dose cohorts, 8 dogs had shrinkage of target lesions >20%; the best tumor responses were between 45-49% reduction in the sum of target lesions in two dogs.

ID8 ovarian cancer = experiment: ID8 syngeneic orthotropic ovarian cancer murine model; format: in vivo, mice; conditions: 15 mg/kg/BID given orally
Text: Human ovarian cancer models, including the ID8 syngeneic orthotropic ovarian cancer model and other animal models, are described in Fong and Kakar, J. Ovarian Res. 2009, 2, 12; Greenaway et al., Gynecol. Oncol. 2008, 108, 385-94; Urzua et al., Tumour Biol. 2005, 26, 236-44; Janat-Amsbury et al., Anticancer Res. 2006, 26, 3223-28; Janat-Amsbury et al., Anticancer Res. 2006, 26, 2785-89. […] The results of the study are shown in FIG. 42, FIG. 43, FIG. 44, FIG. 45, FIG. 46, FIG. 47, FIG. 48, and FIG. 49.

[1] = tested on: pancreatic tumor-bearing mice; experiment: Orthotopic pancreatic cancer model (KPC cells in C57BL/6 mice); format: in vivo; conditions: aggressive orthotopic PDA model, 15 mg/kg oral of each drug
Description: Cell line derived from KrasG12D;Trp53R^872H;Pdx1-Cre (KPC) mice were orthotopically implanted into the head of the pancreas after 35 passages. Based on the mice background from where the cell lines were generated, 1×10^6 cells were injected in C57BL/6 mice. Throughout the experiment, animals were provided with food and water ad libitum and subjected to a 12-h dark/light cycle. Animal studies were performed in accordance with the U.S. Public Health Service “Guidelines for the Care and Use of Laboratory Animals” (IACUC). After euthanization, pancreatic tumors were dissected out, weighed and single cell suspensions were prepared for flow cytometry analysis.

[2] = tested on: KPC derived mouse pancreatic cancer cells; experiment: KPC derived mouse pancreatic cancer model, tumor infiltrating MDSCs and TAMs; format: in vivo; conditions: 15 mg/kg/BID given orally
Description: In this study, KPC derived mouse pancreatic cancer cells (KrasG12D;Trp53R^872H;Pdx1-Cre) were injected into the pancreases.
Single cell suspensions from tumor samples. Mouse tumor tissue was collected and stored in PBS/0.1% soybean trypsin inhibitor prior to enzymatic dissociation. Samples were finely minced with a scissors and mouse tissue was transferred into DMEM containing 1.0 mg/ml collagenase IV (Gibco), 0.1% soybean trypsin inhibitor, and 50 U/ml DNase (Roche) and incubated at 37 C for 30 min. with constant stirring while human tissue was digested in 2.0 mg/ml collagenase IV, 1.0 mg/ml hyluronidase, 0.1% soybean trypsin inhibitor, and 50 U/ml DNase for 45 minutes. Suspensions were filtered through a 100 micron filter and washed with FACS buffer (PBS/0.5% BSA/2.0 mM EDTA) prior to staining. Two million total cells were stained with antibodies as indicated. Intracellular detection of FoxP3 was achieved following permeabilization with BD Perm Buffer III (BD Biosciences) and eBioscience Fix/Perm respectively. Following surface staining, samples were acquired on a BD Fortessa and analyzed using FlowJo (Treestar) software.

[3] = tested on: human platelet-mediated thrombosis; experiment: In vivo human thrombus formation in the VWF HA1 mice model (laser injury); conditions: human platelets preincubated with BTK inhibitor (0.1, 0.5 or 1 μM) 30 min; laser-induced injury in VWF HA1 mice
Description: Purified human platelets were preincubated with various concentrations of the BTK inhibitors (0.1 μM, 0.5 μM, or 1 μM) or DMSO and then administered to VWF HA1 mice, followed by laser-induced thrombus formation.
The objective of this study was to evaluate in vivo thrombus formation in the presence of BTK inhibitors.

| Structure (SMILES) | Inhibition of GPVI platelet aggregation (human platelets, GPVI) | Complete responses (CR) (canine B cell lymphoma) | Median time on study (all subjects) (canine B cell lymphoma; preliminary) [days] | CD8+ T cells (ID8 ovarian cancer; tumor-bearing mice) | Immunosuppressive tumor associated Tregs (ID8 ovarian cancer; tumor-bearing mice) | Immunosuppressive tumor-associated lymphocytes (ID8 ovarian cancer; tumor-bearing mice) | Immunosuppressive B cells (ID8 ovarian cancer; tumor-bearing mice, total B cells and Bregs) | ID8 ovarian cancer growth (ID8 ovarian cancer; vs vehicle) | Tumor burden [1] | Immature myeloid infiltrate ([1]; flow cytometry) | Number of immunosuppressive Tregs ([1]; flow cytometry) | Number of tumor associated macrophages ([1]; flow cytometry) | Tumor burden [2] | Effect on human platelet-mediated thrombus formation [3] |
| --- | --- | --- | --- | --- | --- | --- | --- | --- | --- | --- | --- | --- | --- | --- |
| CC#CC(=O)N1CCC[C@H]1c1nc(-c2ccc(C(=O)Nc3ccccn3)cc2)c2c(N)nccn12 [Formula (XVIII), (S)-4-(8-amino-3-(1-(but-2-ynoyl)pyrrolidin-2-yl)imidazo[1,5-a]pyrazin-1-yl)-N-(pyridin-2-yl)benzamide] | does not | not observed | 24 | increase | significant reduction | significant reduction | significant reduction | impairs | significantly reduced | decreased | reduced | reduced | reduction | – |
| C=CC(=O)N1CCC[C@@H](n2nc(-c3ccc(Oc4ccccc4)cc3)c3c(N)ncnc32)C1 [Formula XX-A, 1-[(3R)-3-[4-amino-3-(4-phenoxyphenyl)-1H-pyrazolo[3,4-d]pyrimidin-1-yl]piperidin-1-yl]prop-2-en-1-one, reference compound] | significantly inhibits | – | – | – | – | – | – | – | – | – | – | – | – | able to limit this process |
| C=CC(=O)Nc1cccc(Nc2nc(Nc3ccc(OCCOC)cc3)ncc2F)c1 [Formula XXVII, N-(3-((5-fluoro-2-((4-(2-methoxyethoxy)phenyl)amino)pyrimidin-4-yl)amino)phenyl)acrylamide] | – | – | – | – | – | – | – | – | – | – | – | – | – | effect similar to Formula XX-A (ibrutinib) |
